Experimental data as given in patent US6861443B2, “Positive modulators of nicotinic receptors” (Astra AB, priority 1998, dated 2005).
Read-outs that look alike come from different tables or passages of the source.

What was measured:
[1] = target: mouse muscle-type nicotinic receptors (Mus musculus, UniProt P02716+P04756+P09690); assay: Efficacy enhancement on other nicotinic receptors; type: cell-based
α7-nicotinic receptor = assay: Two-electrode voltage-clamp current recording from Xenopus oocytes expressing α7-nicotinic receptors; type: cell-based, human, rat and chick
Experimental: (a) Xenopus Oocyte Current Recording
The Xenopus oocyte has provided a powerful means of assessing the function of proteins thought to be subunits of ligand-gated ion-channels.
Consequently, one convenient technique to assess the enhancement of nicotinic efficacy is two-electrode voltage-clamp recording from Xenopus oocytes expressing α7-nicotinic receptors from cRNA.
Oocytes were removed to OR2 solution (82 mM NaCl, 2.5 mM KCl, 5 mM HEPES, 1.5 mM NaH2PO4, 1 mM MgCl2, 0.1 mM EDTA; pH 7.4). The oocytes were defolliculated by incubation in 25 ml OR2 containing 0.2% collagenase 1A (Sigma) two times for 60 min on a platform vibrating at 1 Hz and stored in Leibovitz's L-15 medium (50 μg/ml gentomycin, 10 Units/ml penicillin, and 10 μg/ml streptomycin). Approximately 50 ng of cRNA was injected in each oocyte the following day. cRNA was synthesised from cDNA using Message Machine (purchased from Abion).
The external recording solution consisted of 90 mM NaCl, 1 mM KCl, 1 mM MgCl2, 1 mM BaCl2, 5 mM HEPES; pH 7.4. […] Oocytes were impaled with two electrodes of 1-2 MΩ tip resistance when filled with 3M KCl. Recordings were begun when membrane potential became stable at potentials negative to −20 mV (resting membrane potentials are less negative when Ba^++ replaces Ca^++ in bathing solutions). Membrane potential was clamped at −80 mV.
Current amplitude was measured from baseline to peak. EC50 values, maximal effect, and Hill slopes were estimated by fitting the data to the logistic equation using GraphPad Prism (GraphPad Software, Inc., San Diego, Calif.).
Increases in agonist efficacy elicited by a positive modulator can be calculated in two ways: • (1) As percent potentiation of current amplitude which is defined as 100(Im−Ic)/Ic where Im is current amplitude in the presence of modulator and Ic is current in the absence of modulator (FIG. 1). • (2) As percent potentiation of “area under curve” of an agonist trace. Area under the curve is a common representation of the total ion flux through the channel (FIG. 2).

5-HT3 receptors = conditions: unpublished results / in press; cited from earlier work
nAChR α7 = nAChR α7 (Homo sapiens, UniProt P36544); conditions: FIG. 6
Chain of nAChR α7 (P36544 23-502): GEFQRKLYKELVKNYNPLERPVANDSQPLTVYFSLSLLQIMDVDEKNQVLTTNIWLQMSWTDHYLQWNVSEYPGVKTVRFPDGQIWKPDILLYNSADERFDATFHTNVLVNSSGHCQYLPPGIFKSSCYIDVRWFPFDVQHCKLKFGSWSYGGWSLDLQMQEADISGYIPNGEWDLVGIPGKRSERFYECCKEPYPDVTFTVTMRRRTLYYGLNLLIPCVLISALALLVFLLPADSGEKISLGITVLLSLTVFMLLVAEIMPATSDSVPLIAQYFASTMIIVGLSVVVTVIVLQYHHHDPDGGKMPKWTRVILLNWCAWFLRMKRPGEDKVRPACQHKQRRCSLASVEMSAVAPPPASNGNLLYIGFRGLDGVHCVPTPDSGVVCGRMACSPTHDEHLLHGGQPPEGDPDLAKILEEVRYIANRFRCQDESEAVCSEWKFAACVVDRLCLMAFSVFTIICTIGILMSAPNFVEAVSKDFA
Experimental: To screen for α7 modulatory activity, the 96 well plate is placed in a fluorescence imaging plate reader (FLIPR) and test compounds along with an α7 agonist are applied simultaneously to all wells. Receptor activation is measured by calcium influx into cells which is quantified by the increase in fluorescence intensity of each well, recorded simultaneously by the FLIPR. A modulatory effect is determined by the increase in fluorescence over that of agonist alone. Similarly, to test for nAChR α7 agonist activity, test compounds along with an α7 modulator are applied simultaneously to all wells. Receptor activation is measured by calcium influx into cells which is quantified by the increase in fluorescence intensity of each well, recorded simultaneously by the FLIPR. An agonist effect is determined by the increase in fluorescence over that of modulator alone.
Effect of nAChR α7 modulator on agonist activity was measured by Ca^2+ flux through nAChR α7 expressed in HEK-293 cells. The nicotinic agonist (−)-Spiro[1-Azabicyclo[2.2.2.]Octane-3,5*-Oxazolidine]-2*-One, was used.

Chain of mouse muscle-type nicotinic receptors (P04756 21-457): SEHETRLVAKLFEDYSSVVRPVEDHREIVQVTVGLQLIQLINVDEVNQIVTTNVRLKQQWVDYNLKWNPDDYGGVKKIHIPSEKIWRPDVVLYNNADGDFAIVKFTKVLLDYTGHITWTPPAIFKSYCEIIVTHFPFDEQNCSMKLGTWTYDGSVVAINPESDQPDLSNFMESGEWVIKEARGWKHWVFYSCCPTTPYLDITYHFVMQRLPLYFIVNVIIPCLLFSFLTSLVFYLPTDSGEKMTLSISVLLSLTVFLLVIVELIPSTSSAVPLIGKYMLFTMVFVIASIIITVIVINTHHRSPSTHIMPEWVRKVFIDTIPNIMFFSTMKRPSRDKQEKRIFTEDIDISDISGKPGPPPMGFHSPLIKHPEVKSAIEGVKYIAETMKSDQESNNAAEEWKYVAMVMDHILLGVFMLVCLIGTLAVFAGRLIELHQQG
Chain of mouse muscle-type nicotinic receptors (P09690 24-501): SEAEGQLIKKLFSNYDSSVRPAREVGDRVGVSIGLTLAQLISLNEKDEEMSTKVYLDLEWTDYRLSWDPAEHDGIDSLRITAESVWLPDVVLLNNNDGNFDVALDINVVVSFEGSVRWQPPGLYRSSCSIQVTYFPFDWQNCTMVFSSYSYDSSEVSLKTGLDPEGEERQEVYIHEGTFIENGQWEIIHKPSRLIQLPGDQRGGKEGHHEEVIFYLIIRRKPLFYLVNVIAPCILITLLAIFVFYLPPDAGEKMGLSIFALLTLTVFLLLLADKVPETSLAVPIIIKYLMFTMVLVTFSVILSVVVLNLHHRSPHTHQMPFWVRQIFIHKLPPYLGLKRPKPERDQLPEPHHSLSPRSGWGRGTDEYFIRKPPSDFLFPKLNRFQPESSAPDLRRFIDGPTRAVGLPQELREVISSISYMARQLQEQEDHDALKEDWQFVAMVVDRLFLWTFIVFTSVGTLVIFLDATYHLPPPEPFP
Chain of mouse muscle-type nicotinic receptors (P02716 25-520): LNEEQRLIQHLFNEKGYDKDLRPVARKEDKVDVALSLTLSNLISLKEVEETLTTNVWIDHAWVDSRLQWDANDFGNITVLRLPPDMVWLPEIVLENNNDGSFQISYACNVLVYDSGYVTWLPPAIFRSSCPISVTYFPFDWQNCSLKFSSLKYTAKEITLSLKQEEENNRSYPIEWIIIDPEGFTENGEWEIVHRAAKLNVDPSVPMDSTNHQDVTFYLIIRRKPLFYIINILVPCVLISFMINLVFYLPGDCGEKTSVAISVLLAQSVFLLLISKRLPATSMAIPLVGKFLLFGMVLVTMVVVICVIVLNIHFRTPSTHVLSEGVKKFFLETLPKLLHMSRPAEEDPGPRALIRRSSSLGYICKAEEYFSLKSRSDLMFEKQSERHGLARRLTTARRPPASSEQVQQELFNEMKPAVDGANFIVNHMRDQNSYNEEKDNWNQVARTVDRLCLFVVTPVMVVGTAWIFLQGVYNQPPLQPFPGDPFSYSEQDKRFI

## Oc1ccc2[nH]ccc2c1 [5-hydroxyindole]
[1]
  increase in efficacy on other nicotinic receptors: not seen on any other nicotinic receptors
α7-nicotinic receptor; 0.5 mM 5-OHi, saturating agonist (3 mM ACh), 1 second agonist application, FIG. 4
  increase in area under the curve: ~400%
α7-nicotinic receptor; 5-hydroxyindole 500 μM against a range of ACh concentrations, FIG. 3
  increase of maximal response to ACh (maximum amplitude): 2 fold
α7-nicotinic receptor; general statement
  increase in efficacy of agonists at nicotinic receptors: greater than 2 fold
α7-nicotinic receptor; modulator 1 mM 5-OHi, ACh 3 mM, AR-R 17779 100 μM, FIG. 5
  increase in efficacy of various nicotinic agonists afforded by 5-hydroxyindole: seen with all nicotinic agonists tested
α7-nicotinic receptor; no agonist, oocytes injected with cRNA for α7 nicotinic receptors
  current induced when applied by itself: did not induce current

## NCCc1c[nH]c2ccc(O)cc12 [serotonin]
α7-nicotinic receptor
  positive modulation on ACh activity (efficacy enhancing activity): did not increase efficacy
α7-nicotinic receptor; listed as 5-HT
  positive modulation on ACh activity (efficacy enhancing activity): unable to reproduce the finding that 5-HT increases activity

## NS(=O)(=O)c1cc2c(cc1Cl)NC(C1CC3C=CC1C3)NS2(=O)=O (stereo not drawn) [cyclothiazide]
5-HT3 receptors
  effect on 5-HT3 receptors: block 5-HT3 receptors

## O=C1NCC2(CN3CCC2CC3)O1 (single isomer, unassigned; (-))
nAChR α7; no modulator
  agonist activity as Ca2+ flux signal, agonist alone: No discernible signal
nAChR α7; with nAChR α7 modulator
  agonist activity as Ca2+ flux signal, agonist together with modulator: significant increase in agonist activity

## NCC(=O)O [Glycine]
5-HT3 receptors
  effect on 5-HT3 receptors: no effect
